Tests used:
[1] = Catalase activity, conversion of H2O2 to oxygen, polarographic oxygen electrode (Example 2); format: biochemical
Summary of the method: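 Clark-type oxygen electrode at 25 °C in 50 mM sodium phosphate pH 8.1, 0.9% NaCl, with 10 μM salen-manganese complex and 10 mM H2O2. Initial rates from slope of first ~5 s, corrected for H2O2-alone rate; endpoint O2 as maximal minus pre-substrate baseline.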

[2] = Peroxidase activity, H2O2-dependent oxidation of ABTS (Example 2); format: biochemical; conditions: for Peroxidase rate: 10 μM salen manganese complex, 0.2 mM H2O2; for Peroxidase: relative to C7 (C7 = 100)
Summary of the method: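 ABTS oxidation by salen manganese complex (10 μM) with 0.2 mM H2O2 in 50 mM sodium phosphate pH 8.1 (or pH 6.0/7.1 where indicated), 0.9% NaCl, 0.5 mM ABTS, 27±0.2 °C. Oxidized ABTS read spectrophotometrically at 740 or 500 nm and quantified from Δε740 20,300 or Δε500 3400 M^−1cm^−1.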

dopaminergic neurons = assay: MPTP mouse model of Parkinson's disease (mazindol binding); format: in vivo
Method: Neuronal damage was induced in mice by injection with MPTP as described in Example 1. Where indicated, mice were also treated with intraperitoneal injections of C40 at 0.02 or 0.2 mg/kg. The integrity of the nigrostriatal dopaminergic neurons was assessed based upon ^3H-Mazindol binding to striatal membranes harvested from the brains of these mice about 1 week after MPTP administration.
The experiment was performed over a 7 day period. […] The animals were sacrificed after 7 days.

[3] = test system: Human dermal fibroblasts (HF cells); assay: Cell protection assay, tert-butylhydroperoxide (t-BHP) toxicity, XTT; format: cell-based
Method: Human dermal fibroblasts (HF cells) were obtained from the American type tissue Culture Collection at passage 1 and cultured and propagated in a medium (HF medium) consisting of Dulbecco's Modified Eagle's Medium with 4.5 g/l D-glucose, 10% calf serum 4 mM glutamine, 50 units/ml penicillin, and 50 μg/ml streptomycin in a 37° C. humidified incubator equilibrated with 5% CO2. Cells were used at passages 5 or 6 for experiments. For cell protection assays, HF cells were seeded at a density of about 15,000 cells per cm2 onto 96-well culture plates and allowed to grow to confluence. To assess protection tert-butylhydroperoxide (t-BHP) toxicity, confluent cell layers were first treated with the indicated concentrations of test compounds dissolved in HF medium for 18 hr. The medium was then replaced with fresh medium containing test compounds and 0.5 mM tert-butylhydroperoxide (t-BHP) and cells were incubated for another 18 hr. The medium was then removed and replaced with fresh HF medium (100 μl per well) without test compounds or t-BHP. Fifty μl of XTT reagent (Boeringer Mannheim, Inc.), prepared as described by the manufacturer, was then added to each well and the plates returned to the incubator. After 2 hr., the absorbance at 490 nm was measured in a BioRad (Richmond, Calif.) Model 3550 plate-reader, using a reference wavelength of 655 nm. Control cells that had not been exposed to test compounds or toxic agents were included among the samples treated with XTT reagent. Absorbance measurements for blank wells, containing HF medium and XTT reagent but no cells, were also determined. To analyze protection from glucose/glucose oxidase toxicity, confluent cell layers were incubated with HF medium containing glucose oxidase (0.019 units/ml) along with test compounds, as indicated, for 18 hr in the tissue culture incubator. Fresh HF medium was then added and cell viability assessed using the XTT reagent as described above. For both these models, concentrations of toxic agents were selected that were reproducibly completely lethal. Cytotoxicity assessments were routinely confirmed by visual inspection of the cell layers prior to addition of the XTT reagent.

Rats = assay: Rat model for myocardial infarct (permanent coronary occlusion); format: in vivo; conditions: intravenous bolus immediately prior to surgery, 48 hr recovery
Method: Rats were subjected to permanent regional cardiac ischemia by surgical occlusion of the left coronary artery. […] Sham-operated rats were subjected to surgery but the suture was not tied on the coronary artery. After a 48 hr recovery period, cardiac functional parameters were measured with a Millar transducing catheter implanted into the left ventricle.

[4] = 10 μM salen manganese complex, 10 mM H2O2

Structure (SMILES) | catalase activity (in words) [1] | Catalase rate [1, 4] | Endpoint [1, 4] | Catalase endpt. ([1]; relative to C7 (C7 = 100)) | Catalase rate ([1]; relative to C7 (C7 = 100)) | peroxidase activity (in words) [2] | Peroxidase rate [2] | Peroxidase [2] | Cell viability, absorbance at 490 nm uncorrected for blank ([3]; 2.5 μM, t-BHP 0.5 mM) | Cell viability, absorbance at 490 nm uncorrected for blank ([3]; 5 μM, t-BHP 0.5 mM) | Cell viability, absorbance at 490 nm uncorrected for blank ([3]; 10 μM, t-BHP 0.5 mM) | Cell viability, absorbance at 490 nm uncorrected for blank ([3]; 20 μM, t-BHP 0.5 mM) | Cell viability, absorbance at 490 nm uncorrected for blank ([3]; 40 μM, t-BHP 0.5 mM) | Cell viability, absorbance at 490 nm uncorrected for blank ([3]; 80 μM, t-BHP 0.5 mM) | protection, left ventricular diastolic pressure (Rats) | other results
[Cl][Mn]1[O]c2ccccc2C=NCCN=Cc2ccccc2[O]1 [Compound C7] | exhibits catalase activity | 148.6 ± 33.5 μM O2/min | 32.3 ± 1.2 maximal μM O2 | 100 | 100 | exhibits peroxidase activity | 20.0 ± 0.5 μM ABTS oxidized/min | 100 | 0.28 ± 0.01 | 0.68 ± 0.31 | 1.45 ± 0.05 | 1.44 ± 0.05 | 1.42 ± 0.03 | 0.77 ± 0.41 | protection | catalase turnovers completed ([1]; 10 μM C7, ~1 mM H2O2): no more than a single turnover; ABTS oxidized ([2]; 10 μM C7, 1 mM H2O2, pH 8.1): up to 88 μM; peroxidase turnovers ([2]; 10 μM C7, 1 mM H2O2, pH 8.1): over 8 turnovers; toxicity, adverse health effects (dopaminergic neurons; 7 day test period): absence of adverse health effects; number of surviving dopaminergic neurons in MPTP-treated mice (dopaminergic neurons; C7 33 mg/kg i.p. pretreatment, MPTP 40 mg/kg days 1 and 2): approximately doubled; number of dopaminergic neurons, C7 alone (dopaminergic neurons; C7 alone): not adversely affected; synergistic toxicity with t-BHP ([3]; 80 μM): possible synergistic toxicity
COc1cccc2c1[O][Mn]([O]C(C)=O)[O]c1c(cccc1OC)C=NCCN=C2 [Compound C32] | about twice as fast as C7 | 295.0 ± 31.9 μM O2/min | 90.1 ± 2.6 maximal μM O2 | 319 | 188 | fastest peroxidases | 34.2 ± 1.5 μM ABTS oxidized/min | 203 | 0.29 ± 0.01 | 0.28 ± 0.01 | 1.35 ± 0.05 | 1.43 ± 0.05 | 1.48 ± 0.06 | 1.40 ± 0.07 | – | turnovers before the catalase reaction ceased ([1]; 10 μM complex, 10 mM H2O2): about 16 turnovers
COc1cc(OC)c2c(c1)[O][Mn]([O]C(C)=O)[O]c1cc(OC)cc(OC)c1C=NCCN=C2 [Compound C35] | much lower catalase activity | 36.0 ± 8.0 μM O2/min | 10.5 ± 3.0 maximal μM O2 | 41 | 25 | undetectable activity | −0.1 ± 0.1 μM ABTS oxidized/min | 0 | 0.27 ± 0.01 | 0.27 ± 0.01 | 0.29 ± 0.03 | 1.40 ± 0.05 | 1.52 ± 0.07 | 0.57 ± 0.01 | – | toxicity of compound alone ([3]; 80 μM, without t-BHP): equivalent toxicity with or without t-BHP; concentration at which protection was observed ([3]; t-BHP 0.5 mM): ≥ 20 µM
COc1cccc2c1[O][Mn]([Cl])[O]c1c(cccc1OC)C=NCCN=C2 [Compound C40] | higher rate | – | – | 272 | 155 | fastest peroxidases | 32.9 ± 0.2 μM ABTS oxidized/min | 203 | – | – | – | – | – | – | protection | protection of dopaminergic neurons (3H-Mazindol binding to striatal membranes) (dopaminergic neurons; C40 0.02 or 0.2 mg/kg intraperitoneal): protects dopaminergic neurons

From patent US7582786B2, “Synthetic catalytic free radical scavengers useful as antioxidants for prevention and therapy of disease” (Eukarion Inc., priority 1996, dated 2009)
